Test results from US7709223B2, “Method for detecting bacteria with chromogenic substrates for β-D-ribofuranosidase” (priority 2001, dated 2010).
Where a name gives a salt, the structure may show the parent alone.

Legend:
C. diphtheriae = test: Hydrolysis on Columbia agar with ferric ammonium citrate; type: cell-based, Corynebacterium diphtheriae
Description: (§1) The chromogenic β-D-ribofuranoside substrate was added to Columbia agar at a substrate concentration of 300 mg/l. Ferric ammonium citrate was included at 500 mg/l. All ingredients were autoclaved at 116° C. for 20 minutes to ensure sterilisation. Agar plates were then prepared in 90 mm petri dishes. The substrate caused a yellow colouration of the agar.
(§2) For each strain tested, a bacterial suspension was prepared in sterile deionised water at an inoculum of approximately 1.5×10^8 colony forming units per ml. This was achieved using a densitometer. 1 μl of each bacterial suspension was then inoculated onto each plate using a multipoint inoculator. Strains were inoculated in parallel onto Columbia agar containing ferric ammonium citrate with no substrate (negative control).
(§3) After 18 hours incubation, strains were examined visually for the presence of colour. Any strains producing a black colouration on substrate containing media but not on the negative control plates were deemed to be hydrolysing the substrate.

Listeria seerigeri = test: as above; type: cell-based; conditions: Listeria seerigeri PHLS wild
Description: as §1, §2, §3

SMILES: O=c1cc(-c2ccc(OC3OC(CO)C(O)C3O)c(O)c2)oc2ccccc12 [DHF-riboside, 3′,4′-Dihydroxyflavone-4′-β-D-ribofuranoside sodium salt]
- β-Ribofuranoside (hydrolysis) (C. diphtheriae; C. diphtheriae NCTC 3987): +
- β-Ribofuranoside (hydrolysis) (C. diphtheriae; C. diphtheriae NCTC 10356): ++
- β-Ribofuranoside (hydrolysis) (C. diphtheriae; C. diphtheriae NCTC 11397): ++
- β-Ribofuranoside (hydrolysis) (C. diphtheriae; Corynebacterium diphtheria NEQAS): ++
- Activity with the substrate (C. diphtheriae; Corynebacterium diphtheriae): active
- β-Ribofuranoside (hydrolysis) (Listeria seerigeri): −
